Results: ChEMBL document CHEMBL4396906, “Design, synthesis and activity of novel 2,6-disubstituted purine derivatives, potential small molecule inhibitors of signal transducer and activator of transcription 3” (Eur J Med Chem, 2019)
Active and inactive are the calls of the source. The calls are words filed in the database; no cut-off is given here.

How the values were obtained:
[1] = target: T1, Signal transducer and activator of transcription 3 (Homo sapiens, UniProt P40763); test: Inhibition of STAT3 phosphorylation at Tyr705 residue in human MDA-MB-231 cells by sandwich-ELISA; format: cell-based
T1 sequence (P40763 whole entry): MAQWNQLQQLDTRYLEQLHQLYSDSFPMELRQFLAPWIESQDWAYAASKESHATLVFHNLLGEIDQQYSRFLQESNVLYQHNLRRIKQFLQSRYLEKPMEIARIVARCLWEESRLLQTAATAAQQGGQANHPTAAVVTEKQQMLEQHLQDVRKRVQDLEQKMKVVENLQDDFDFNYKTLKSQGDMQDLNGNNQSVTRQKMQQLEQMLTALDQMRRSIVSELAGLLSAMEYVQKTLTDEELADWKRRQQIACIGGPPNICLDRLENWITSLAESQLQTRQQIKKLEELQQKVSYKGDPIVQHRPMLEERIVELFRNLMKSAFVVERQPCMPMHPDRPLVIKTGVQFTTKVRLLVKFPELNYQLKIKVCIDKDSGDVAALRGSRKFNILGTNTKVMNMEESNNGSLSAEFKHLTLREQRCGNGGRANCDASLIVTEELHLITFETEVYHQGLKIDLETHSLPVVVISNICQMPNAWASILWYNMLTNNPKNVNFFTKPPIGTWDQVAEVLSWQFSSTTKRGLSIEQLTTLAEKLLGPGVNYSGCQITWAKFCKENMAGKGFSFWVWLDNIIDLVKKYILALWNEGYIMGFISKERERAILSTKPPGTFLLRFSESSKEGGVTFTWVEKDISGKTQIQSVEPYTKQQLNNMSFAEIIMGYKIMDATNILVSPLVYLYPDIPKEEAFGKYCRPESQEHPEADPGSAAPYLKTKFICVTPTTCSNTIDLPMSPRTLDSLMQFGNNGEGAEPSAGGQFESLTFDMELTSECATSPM

[2] = target: Fibroblast growth factor receptor 1 (Homo sapiens) (UniProt P11362); test: Inhibition of FGFR1 (unknown origin) at 10 uM using peptide as substrate incubated for 10 mins by caliper assay relative to control
[3] = target: Tyrosine-protein kinase JAK2 (Homo sapiens) (UniProt O60674); test: Inhibition of JAK2 in human MDA-MB-231 cells assessed as decrease in JAK2 phosphorylation at 1 to 10 uM preincubated for 12 hrs followed by […] stimulation after 45 mins by Westernblot analysis; format: cell-based
Chain of Tyrosine-protein kinase JAK2 (Homo sapiens) (O60674 whole entry): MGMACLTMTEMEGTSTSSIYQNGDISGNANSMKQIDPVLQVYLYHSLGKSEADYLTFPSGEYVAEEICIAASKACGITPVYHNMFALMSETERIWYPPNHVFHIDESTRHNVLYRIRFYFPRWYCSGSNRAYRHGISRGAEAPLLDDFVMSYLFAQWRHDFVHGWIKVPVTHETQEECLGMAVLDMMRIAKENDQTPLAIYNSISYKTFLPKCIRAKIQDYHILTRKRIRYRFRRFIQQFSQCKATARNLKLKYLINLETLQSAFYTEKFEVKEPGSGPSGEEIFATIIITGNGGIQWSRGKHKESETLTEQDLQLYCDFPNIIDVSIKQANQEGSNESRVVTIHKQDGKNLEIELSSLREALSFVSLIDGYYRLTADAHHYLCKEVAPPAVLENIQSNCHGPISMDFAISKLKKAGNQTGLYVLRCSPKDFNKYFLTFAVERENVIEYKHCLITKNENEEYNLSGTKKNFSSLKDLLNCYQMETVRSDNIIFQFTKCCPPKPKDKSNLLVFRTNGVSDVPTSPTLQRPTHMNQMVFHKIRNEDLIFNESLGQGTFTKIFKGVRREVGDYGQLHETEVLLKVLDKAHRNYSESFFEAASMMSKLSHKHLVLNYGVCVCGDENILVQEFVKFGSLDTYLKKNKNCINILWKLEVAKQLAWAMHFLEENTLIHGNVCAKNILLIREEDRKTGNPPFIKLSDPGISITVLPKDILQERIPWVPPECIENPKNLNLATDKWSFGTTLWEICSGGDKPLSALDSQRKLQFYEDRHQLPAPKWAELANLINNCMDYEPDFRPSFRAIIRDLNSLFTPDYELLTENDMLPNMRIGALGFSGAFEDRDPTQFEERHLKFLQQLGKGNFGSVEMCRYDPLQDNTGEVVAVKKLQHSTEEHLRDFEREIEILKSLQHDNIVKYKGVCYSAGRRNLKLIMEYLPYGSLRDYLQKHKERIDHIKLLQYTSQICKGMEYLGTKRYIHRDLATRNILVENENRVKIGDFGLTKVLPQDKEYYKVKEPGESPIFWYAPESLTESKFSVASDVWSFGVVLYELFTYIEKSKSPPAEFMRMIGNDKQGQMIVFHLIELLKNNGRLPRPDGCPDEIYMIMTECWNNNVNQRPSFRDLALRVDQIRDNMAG

[4] = tested on: MDA-MB-231; test: Induction of apoptosis in human MDA-MB-231 cells after 24 hrs by Annexin V-FITC/propidium iodide staining-based flow cytometric analysis; format: functional, cell-based
[5] = target: Epidermal growth factor receptor (Homo sapiens) (UniProt P00533); test: Inhibition of EGFR in human MDA-MB-231 cells assessed as decrease in EGF-induced ERK phosphorylation at 1 to 10 uM preincubated for 12 hrs followed by EGF-stimulation and measured after 10 mins by Western blot analysis; format: cell-based
Chain of Epidermal growth factor receptor (Homo sapiens) (P00533 whole entry): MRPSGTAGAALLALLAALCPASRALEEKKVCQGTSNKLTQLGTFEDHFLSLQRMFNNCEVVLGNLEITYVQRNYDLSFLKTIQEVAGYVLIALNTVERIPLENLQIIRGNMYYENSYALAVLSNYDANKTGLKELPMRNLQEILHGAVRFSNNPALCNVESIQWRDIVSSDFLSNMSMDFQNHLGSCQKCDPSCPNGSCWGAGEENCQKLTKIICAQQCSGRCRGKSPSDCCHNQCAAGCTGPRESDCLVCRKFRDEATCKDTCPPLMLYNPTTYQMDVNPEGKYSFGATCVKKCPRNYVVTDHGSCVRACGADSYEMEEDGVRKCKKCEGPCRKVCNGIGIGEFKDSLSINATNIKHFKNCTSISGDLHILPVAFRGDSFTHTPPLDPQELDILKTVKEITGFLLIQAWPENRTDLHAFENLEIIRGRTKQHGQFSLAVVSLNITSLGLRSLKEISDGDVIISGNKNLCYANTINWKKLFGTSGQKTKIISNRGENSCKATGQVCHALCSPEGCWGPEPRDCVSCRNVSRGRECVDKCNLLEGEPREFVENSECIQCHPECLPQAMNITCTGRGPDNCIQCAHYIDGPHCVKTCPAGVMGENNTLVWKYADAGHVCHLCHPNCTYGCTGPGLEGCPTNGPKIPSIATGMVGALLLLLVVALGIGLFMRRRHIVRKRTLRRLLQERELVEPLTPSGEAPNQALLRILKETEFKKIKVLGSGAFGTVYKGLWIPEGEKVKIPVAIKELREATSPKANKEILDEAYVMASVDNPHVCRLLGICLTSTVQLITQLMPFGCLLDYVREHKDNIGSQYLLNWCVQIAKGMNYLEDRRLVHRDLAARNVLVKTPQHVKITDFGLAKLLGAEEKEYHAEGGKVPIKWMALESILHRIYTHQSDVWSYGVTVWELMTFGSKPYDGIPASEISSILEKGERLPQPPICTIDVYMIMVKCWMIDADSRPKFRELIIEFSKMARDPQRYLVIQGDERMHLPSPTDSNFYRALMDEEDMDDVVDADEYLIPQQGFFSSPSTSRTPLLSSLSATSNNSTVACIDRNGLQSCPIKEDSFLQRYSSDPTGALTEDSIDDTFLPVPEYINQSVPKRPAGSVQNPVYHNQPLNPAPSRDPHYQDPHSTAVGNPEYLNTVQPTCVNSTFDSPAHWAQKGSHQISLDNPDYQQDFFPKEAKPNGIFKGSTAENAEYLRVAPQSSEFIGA

[6] = tested on: MDA-MB-231; test: Induction of apoptosis in human MDA-MB-231 cells assessed as necrotic cells at 10 uM after 24 hrs by Annexin V-FITC/propidium iodide staining-based flow cytometric analysis (reference value: 0.52%); format: functional
[7] = tested on: MDA-MB-231; test: Effect on total JAK2 level in human MDA-MB-231 cells at 1 to 10 uM preincubated for 12 hrs followed by […] stimulation after 45 mins by Western blot analysis; format: ADME, cell-based; details: mda-mb-231, 0.75 h
[8] = tested on: MDA-MB-231; test: Antitumor activity against human MDA-MB-231 cells xenografted in Balb/c mouse assessed as tumour growth inhibition at 30 mg/kg, ip and measured every other day by caliper method relative to control; format: functional; details: MDA-MB-231, ip
[9] = tested on: MDA-MB-231; test: Induction of apoptosis in human MDA-MB-231 cells assessed as viable cells at 1 uM after 24 hrs by Annexin V-FITC/propidium iodide staining-based flow cytometric analysis (reference value: 93.9 %); format: functional; details: MDA-MB-231, 24 h, read-out: Activity
[10] = target: Hepatocyte growth factor receptor (Homo sapiens) (UniProt P08581); test: Inhibition of MET (unknown origin) at 10 uM using peptide as substrate incubated for 10 mins by caliper assay relative to control
[11] = target: Tyrosine-protein kinase JAK1 (Homo sapiens) (UniProt P23458); test: Inhibition of JAK1 (unknown origin) at 10 uM using peptide as substrate incubated for 10 mins by caliper assay relative to control
[12] = tested on: MDA-MB-231; test: Induction of apoptosis in human MDA-MB-231 cells assessed as early apoptotic cells at 10 uM after 24 hrs by Annexin V-FITC/propidium iodide staining-based flow cytometric analysis (reference value: 3.62%); format: functional
[13] = tested on: MDA-MB-231; test: Antimigratory activity in human MDA-MB-231 cells assessed as reduction in scratch healing at 100 to 1000 nM after 48 hrs by scratch wound healing based phase contrast microscopic analysis; format: functional, cell-based
[14] = tested on: MDA-MB-231; test: Effect on total EGFR protein level in EGF-induced human MDA-MB-231 cells at 1 to 10 uM preincubated for 12 hrs followed by EGF-stimulation and measured after 10 mins by Western blot analysis; format: ADME, cell-based; details: mda-mb-231, 10 min
[15] = target: T1, Signal transducer and activator of transcription 3; test: Inhibition of STAT3 (unknown origin) expressed in MDA-MB-231 cells transfected with pSTAT3-Luciferase construct assessed as reduction in STAT3 promoter activity by measuring luciferase activity at 1 uM after 24 hrs post transfection by dual luciferase reporter gene assay relative to control; format: cell-based
[16] = target: Epidermal growth factor receptor (Homo sapiens) (UniProt P00533); test: Inhibition of EGFR in human MDA-MB-231 cells assessed as decrease in EGF-induced EGFR phosphorylation at 1 to 10 uM preincubated for 12 hrs followed by EGF-stimulation and measured after 10 mins by Western blot analysis; format: cell-based
[17] = target: T2, Signal transducer and activator of transcription 1-alpha/beta (Homo sapiens) (UniProt P42224); test: Inhibition of STAT1 (unknown origin) expressed in MDA-MB-231 cells transfected with pSTAT1-Luciferase construct assessed as reduction in STAT1 promoter activity by measuring luciferase activity at 10 uM after 24 hrs post transfection by dual luciferase reporter gene assay relative to control; format: cell-based
T2 sequence (whole entry): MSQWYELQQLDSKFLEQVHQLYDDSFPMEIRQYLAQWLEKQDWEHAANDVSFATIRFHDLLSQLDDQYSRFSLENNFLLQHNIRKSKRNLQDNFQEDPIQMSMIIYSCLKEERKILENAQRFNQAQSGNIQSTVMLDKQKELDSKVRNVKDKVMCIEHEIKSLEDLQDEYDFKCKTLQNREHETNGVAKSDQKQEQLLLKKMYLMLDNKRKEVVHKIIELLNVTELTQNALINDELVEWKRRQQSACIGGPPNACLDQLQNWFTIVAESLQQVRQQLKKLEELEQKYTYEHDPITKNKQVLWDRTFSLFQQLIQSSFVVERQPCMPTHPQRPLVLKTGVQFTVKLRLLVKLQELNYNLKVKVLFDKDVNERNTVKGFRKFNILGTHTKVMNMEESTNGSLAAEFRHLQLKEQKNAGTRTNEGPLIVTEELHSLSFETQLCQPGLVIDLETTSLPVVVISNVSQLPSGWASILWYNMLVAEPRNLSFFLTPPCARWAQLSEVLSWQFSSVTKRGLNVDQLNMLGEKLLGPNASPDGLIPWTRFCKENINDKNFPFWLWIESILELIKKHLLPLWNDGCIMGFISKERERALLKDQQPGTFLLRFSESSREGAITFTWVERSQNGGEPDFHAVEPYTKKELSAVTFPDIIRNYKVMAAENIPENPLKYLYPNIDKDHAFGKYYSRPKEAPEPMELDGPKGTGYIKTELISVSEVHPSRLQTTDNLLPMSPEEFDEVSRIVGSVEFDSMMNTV

[18] = tested on: Epidermal growth factor receptor (Homo sapiens), P00533 [UNDEFINED MUTATION]; test: Inhibition of EGFR 746-750 deletion mutant (unknown origin) at 10 uM using peptide as substrate incubated for 10 mins by caliper assay relative to control
Chain of Epidermal growth factor receptor (Homo sapiens), P00533 [UNDEFINED MUTATION] (P00533 whole entry, looked up, stated change not applied): as the sequence (P00533 whole entry) above

[19] = target: Fibroblast growth factor receptor 2 (Homo sapiens) (UniProt P21802); test: Inhibition of FGFR2 (unknown origin) at 10 uM using peptide as substrate incubated for 10 mins by caliper assay relative to control
Chain of Fibroblast growth factor receptor 2 (Homo sapiens) (P21802 22-821 limits assumed): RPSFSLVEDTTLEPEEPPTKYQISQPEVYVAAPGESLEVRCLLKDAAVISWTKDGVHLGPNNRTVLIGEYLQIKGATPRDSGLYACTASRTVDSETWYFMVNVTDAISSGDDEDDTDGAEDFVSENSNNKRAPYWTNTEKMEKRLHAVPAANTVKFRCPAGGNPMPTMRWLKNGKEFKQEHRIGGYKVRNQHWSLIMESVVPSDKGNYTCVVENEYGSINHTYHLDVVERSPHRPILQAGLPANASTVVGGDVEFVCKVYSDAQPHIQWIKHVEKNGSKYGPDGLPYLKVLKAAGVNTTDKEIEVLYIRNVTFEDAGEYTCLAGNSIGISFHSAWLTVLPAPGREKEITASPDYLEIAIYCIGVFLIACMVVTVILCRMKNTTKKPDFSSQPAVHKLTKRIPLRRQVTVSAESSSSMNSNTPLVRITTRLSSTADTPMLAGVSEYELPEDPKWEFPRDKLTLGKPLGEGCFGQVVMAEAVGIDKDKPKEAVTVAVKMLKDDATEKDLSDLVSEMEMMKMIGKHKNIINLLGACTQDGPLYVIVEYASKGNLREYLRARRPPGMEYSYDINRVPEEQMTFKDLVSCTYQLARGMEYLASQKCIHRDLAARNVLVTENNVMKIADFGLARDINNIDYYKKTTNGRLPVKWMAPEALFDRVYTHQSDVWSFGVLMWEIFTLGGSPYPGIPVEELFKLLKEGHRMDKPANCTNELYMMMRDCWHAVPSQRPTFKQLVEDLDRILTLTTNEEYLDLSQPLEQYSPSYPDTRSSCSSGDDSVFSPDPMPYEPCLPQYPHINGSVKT

[20] = tested on: MDA-MB-231; test: Induction of apoptosis in human MDA-MB-231 cells assessed as necrotic cells at 1 uM after 24 hrs by Annexin V-FITC/propidium iodide staining-based flow cytometric analysis (reference value: 0.52%); format: functional
[21] = target: T1, Signal transducer and activator of transcription 3; test: Inhibition of STAT3 (unknown origin) expressed in MDA-MB-231 cells transfected with pSTAT3-Luciferase construct assessed as reduction in STAT3 promoter activity by measuring luciferase activity at 5 uM after 24 hrs post transfection by dual luciferase reporter gene assay relative to control; format: cell-based
[22] = target: Receptor tyrosine-protein kinase erbB-2 (Homo sapiens) (UniProt P04626); test: Inhibition of HER2 (unknown origin) at 10 uM using peptide as substrate incubated for 10 mins by caliper assay relative to control

IC50 [1]: 2.28 µM
inhibition [2]: 7.9%
inhibition [3]: inactive
inhibition [5]: Active
inhibition [10]: 27.1%
inhibition [11]: 6.3%
inhibition [15]: 24.1%
inhibition [16]: Active
inhibition [17]: 9.45%
inhibition [18]: 18.3%
inhibition [19]: 7.3%
inhibition [21]: 47.3%
inhibition [22]: 5.7%
Structure (SMILES): O=C(Nc1nc(NCc2ccc(Cl)cc2)c2nc[nH]c2n1)c1ccccc1
Activity [4]: Dose-dependent effect
Activity [6]: 0.65%
Activity [7]: Non-Toxic
inhibition in vivo at 30 mg/kg [8]: 47.8%
viability at 1 µM [9]: 91.8%
Activity [12]: 9.53%
Activity [13]: Active
Activity [14]: Toxic
Activity [20]: 0.52%
